Laboratory results taken from ChEMBL document CHEMBL1201862, “PubChem BioAssay data set” (2004).
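Briefly, cells in 96-well plates were exposed to five compound concentrations for 48 h, and endpoints were estimated by linear interpolation. GI50 is the concentration that inhibits growth by half.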 Calls of active or inactive are those of the source. Cut-off read from the data, not from the text of the source: active = GI50 up to about 1.1 µM and inactive = higher.

Legend:
Assay in all cases: NCI tumour cell line growth inhibition, 48 h
[1] = system: SK-MEL-28
[2] = system: 786-0
[3] = system: Malme-3M
[4] = system: SF-268
[5] = system: A498
[6] = system: RPMI-8226
[7] = system: HL-60
[8] = system: HOP-92
[9] = system: SN12C
[10] = system: HOP-62
[11] = system: OVCAR-3
[12] = system: RXF 393
[13] = system: A549
[14] = system: LOX IMVI
[15] = system: UACC-257
[16] = system: SNB-75
[17] = system: MDA-MB-435
[18] = system: MDA-MB-231
[19] = system: Hs-578T

Measured: GI50

COCCOCOC(C)(C)[C@H](CCOC(C)=O)O[Si](c1ccccc1)(c1ccccc1)C(C)(C)C
inactive: [1] 56.5 µM | [2] 18 µM | [3] 16.6 µM | [4] 34.6 µM | [5] 20.4 µM | [6] 3.96 µM | [7] 3.98 µM | [8] 5.61 µM | [9] 5.77 µM | [10] 23.3 µM | [11] 11 µM | [12] 16 µM | [13] 21.1 µM | [14] 14.1 µM | [15] 7.19 µM | [16] 38.7 µM

Cc1nc2ccccc2c(=O)n1NC(=O)c1ccccc1O
inactive: [1] > 100 µM | [2] > 100 µM | [4] > 100 µM | [17] > 100 µM | [18] > 100 µM | [19] > 100 µM | [5] > 100 µM | [6] > 100 µM | [7] > 100 µM | [8] > 100 µM | [9] > 100 µM | [10] > 100 µM | [11] > 100 µM | [12] > 100 µM | [13] > 100 µM | [14] > 100 µM | [15] > 100 µM | [16] > 100 µM

CCCC(=O)N[C@H]1C2C3CC4C5CC(C42)C1(C)C53 (stereo partly drawn)
inactive: [1] > 100 µM | [2] > 100 µM | [3] > 100 µM | [4] > 100 µM | [5] > 100 µM | [6] > 100 µM | [7] > 100 µM | [8] > 100 µM | [9] > 100 µM | [10] > 100 µM | [11] > 100 µM | [12] > 100 µM | [13] > 100 µM | [14] > 100 µM | [15] > 100 µM | [16] > 100 µM

O=C(NCCCCCCNC(=O)OCCSCCn1cc(C(=O)NC(=O)OCc2ccccc2)c(=O)[nH]c1=O)OCCSCCn1cc(C(=O)NC(=O)OCc2ccccc2)c(=O)[nH]c1=O
inactive: [2] > 100 µM | [3] > 100 µM | [5] > 100 µM | [6] > 100 µM | [8] 32.1 µM | [9] > 100 µM | [10] > 100 µM | [11] > 100 µM | [12] 45.5 µM | [13] > 100 µM | [14] > 100 µM | [15] > 100 µM

N#CC(C#N)=C1NC(=O)C(c2ccccc2)C(=O)N1 (stereo not drawn)
inactive: [2] > 100 µM | [3] > 100 µM | [4] > 100 µM | [5] > 100 µM | [6] > 100 µM | [7] > 100 µM | [8] > 100 µM | [9] > 100 µM | [10] > 100 µM | [11] > 100 µM | [12] > 100 µM | [13] > 100 µM | [14] > 100 µM | [15] > 100 µM | [16] > 100 µM

COc1ccc(OC)c(/C=N/N=C2\C(=O)Nc3c(Cl)cc(Cl)cc32)c1
active: [16] 0.505 µM
inactive: [1] > 100 µM | [2] 33.3 µM | [3] > 100 µM | [17] 32.7 µM | [18] 34 µM | [19] 20.4 µM | [5] 71.6 µM | [7] 43.8 µM | [8] 47.3 µM | [9] > 100 µM | [10] 19 µM | [11] 70.3 µM | [12] 66.2 µM | [13] > 100 µM | [14] 47.6 µM | [15] > 100 µM

O=C1NCC2=C1CCC1c3ccccc3CCN21 (stereo not drawn)
inactive: [1] > 100 µM | [2] > 100 µM | [3] > 100 µM | [4] > 100 µM | [5] > 100 µM | [7] > 100 µM | [8] > 100 µM | [9] > 100 µM | [11] > 100 µM | [12] > 100 µM | [13] > 100 µM | [14] > 100 µM | [15] > 100 µM | [16] > 100 µM

C[C@]12CCC(=O)C=C1CC[C@@H]1[C@@H]2C(=O)C[C@@]2(C)[C@H]1CC[C@]2(O)C(=O)CO [CORTISONE]
inactive: [1] > 100 µM | [2] > 100 µM | [3] > 100 µM | [4] > 100 µM | [5] > 100 µM | [6] > 100 µM | [7] > 100 µM | [8] > 100 µM | [9] > 100 µM | [11] > 100 µM | [12] > 100 µM | [13] > 100 µM | [16] > 100 µM

Cc1ccc(Nc2nc3c(s2)C(=O)c2ccccc2C3=O)c(C)c1
inactive: [1] 16.8 µM | [2] 17.5 µM | [3] 13.6 µM | [4] 11.1 µM | [5] 34 µM | [6] 12.1 µM | [7] 2.19 µM | [8] 9.48 µM | [9] 16.9 µM | [10] 16.5 µM | [11] 13.7 µM | [12] 15.6 µM | [13] 16.6 µM | [14] 13.3 µM | [15] 8.13 µM | [16] 15.8 µM

CC(=O)O[C@H]1[C@@H]2[C@@H]3[C@@H](C[C@H]1C)[C@@H](C)CO[C@@]1(C)CC/C=C(/C)C[C@@H]2O[C@@H]31
inactive: [1] > 100 µM | [2] > 100 µM | [3] > 100 µM | [4] > 100 µM | [5] > 100 µM | [6] > 100 µM | [7] > 100 µM | [8] > 100 µM | [9] > 100 µM | [10] > 100 µM | [11] > 100 µM | [12] > 100 µM | [13] > 100 µM | [14] > 100 µM | [15] > 100 µM | [16] > 100 µM

O=C(O)CCC(=O)Oc1ccc(O)c2c1CCCC2=O
inactive: [1] > 100 µM | [2] > 100 µM | [3] > 100 µM | [4] > 100 µM | [5] > 100 µM | [6] 95.5 µM | [7] > 100 µM | [9] > 100 µM | [10] > 100 µM | [11] > 100 µM | [12] > 100 µM | [13] > 100 µM | [14] > 100 µM | [15] > 100 µM | [16] 55.7 µM

CCOC(=O)C(C)NC(=O)NC12CC3CC(CC(F)(C3)C1)C2 (stereo not drawn)
inactive: [1] > 100 µM | [2] > 100 µM | [3] 63 µM | [5] > 100 µM | [6] 88.3 µM | [7] 61.5 µM | [8] 11.5 µM | [10] > 100 µM | [11] 42 µM | [12] 27.5 µM | [13] > 100 µM | [14] > 100 µM | [15] 70.1 µM | [16] 65.3 µM

CC1(C)OCC([C@H]2CC23SCCCS3)O1 (stereo partly drawn)
inactive: [1] > 100 µM | [2] > 100 µM | [3] > 100 µM | [4] > 100 µM | [5] > 100 µM | [6] > 100 µM | [7] > 100 µM | [8] 51.8 µM | [9] > 100 µM | [10] > 100 µM | [12] > 100 µM | [13] > 100 µM | [15] > 100 µM | [16] > 100 µM

C[C@H]1CC[P+](Cc2ccccc2)(c2ccccc2)C1 (stereo partly drawn)
inactive: [1] 84.7 µM | [2] > 100 µM | [3] 30.3 µM | [5] > 100 µM | [6] 19.5 µM | [7] 33.9 µM | [9] > 100 µM | [10] > 100 µM | [11] 41.2 µM | [12] > 100 µM | [13] > 100 µM | [14] 71.4 µM | [15] 25.7 µM | [16] 73.6 µM

NC(=O)CCC(NC(=O)c1c2ccccc2nc2ccccc12)C(=O)O (stereo not drawn)
inactive: [1] > 100 µM | [2] > 100 µM | [3] > 100 µM | [4] > 100 µM | [17] > 100 µM | [18] > 100 µM | [5] > 100 µM | [6] > 100 µM | [8] > 100 µM | [9] > 100 µM | [10] > 100 µM | [11] > 100 µM | [13] > 100 µM | [14] > 100 µM | [15] > 100 µM | [16] > 100 µM

CCOC(=O)C1CC(=O)C=C2CCCCC21 (stereo not drawn)
inactive: [1] > 100 µM | [2] > 100 µM | [3] > 100 µM | [4] > 100 µM | [5] > 100 µM | [6] > 100 µM | [7] > 100 µM | [8] > 100 µM | [9] > 100 µM | [10] > 100 µM | [11] > 100 µM | [12] > 100 µM | [13] > 100 µM | [14] > 100 µM | [15] > 100 µM | [16] 99.3 µM

O=C1NC(Cc2ccc(O)cc2)C(=O)N2CCCC12 (stereo not drawn)
inactive: [1] > 100 µM | [2] > 100 µM | [3] > 100 µM | [4] > 100 µM | [5] > 100 µM | [6] > 100 µM | [7] > 100 µM | [8] > 100 µM | [9] > 100 µM | [10] > 100 µM | [11] > 100 µM | [12] > 100 µM | [13] > 100 µM | [14] > 100 µM | [15] > 100 µM | [16] > 100 µM
